# Assay results: patent US20250134887A1, “METHODS OF TREATING PROSTATE CANCER” (AstraZeneca AB, priority 2022, published 2025)
# Tested on: patients with mCRPC
# Assay: PROpel (NCT03732820) double-blind randomized phase III trial: efficacy and patient-reported outcomes
# Assay type: in vivo, human
# From the text: The primary objective was efficacy as assessed by investigator-assessed imaging-based progression-free survival.
# Patient population. Eligible patients were 18 years of age (or 19 years of age in South Korea) and had histologically or cytologically confirmed prostate adenocarcinoma with at least one documented metastatic lesion on either a bone scan, computed tomography, or magnetic resonance imaging scan. […] Docetaxel during neoadjuvant/adjuvant treatment for localized prostate cancer and the metastatic hormone-sensitive (mHSPC) stage of disease was permitted, as long as no signs of failure or disease progression occurred during or immediately after such treatment. Prior to mCRPC stage, treatment with second-generation antiandrogen agents (except abiraterone) without PSA progression/clinical progression/radiographic progression during treatment was allowed, provided the treatment was stopped at least 12 months before randomisation.
# Trial design and interventions. This was a double-blind, placebo-controlled, phase Ill trial. Eligible patients were randomized (1:1) to treatment with abiraterone acetate (1000 mg once daily) in combination with either olaparib (300 mg twice daily) or placebo. All patients received prednisone or prednisolone (5 mg twice daily) as per the abiraterone acetate label requirement. Randomization was stratified by distant metastasis type (bone only/visceral/other) at baseline and by docetaxel treatment at the mHSPC stage of disease (yes or no). Study treatment continued until objective imaging-based progressive disease assessed by investigator (using Response Evaluation Criteria in Solid Tumors [RECIST 1.1] for soft tissue lesions and Prostate Cancer Working Group-3 [PCWG-3] criteria for bone lesions), unacceptable toxicity, or withdrawal of consent. Following objective disease progression, further treatment options were at the discretion of the investigator. […] Crossover from placebo to receive olaparib in combination with abiraterone acetate was not allowed.
# Endpoints. The primary endpoint was imaging-based progression-free survival or death from any cause in the absence of disease progression. Sensitivity analysis by blinded independent central review and exploratory subgroup analysis of investigator-assessed imaging-based progression-free survival to assess consistency of treatment effect across potential prognostic factors were prespecified. Subgroups included HRRm status.
# A key secondary endpoint was overall survival. Other secondary endpoints included time to first subsequent therapy or death (TFST), time to second progression or death (PFS2) and patient-reported outcomes. Further exploratory endpoints were objective response rate (ORR), prostate-specific antigen (PSA) response rate and time to PSA progression.
# Statistical analysis. Efficacy was analyzed for the intention-to-treat population and safety was analyzed for all patients who received any amount of abiraterone acetate, olaparib, or placebo.
# The first planned interim analysis of the primary endpoint of imaging-based progression-free survival is reported in this example. Imaging-based progression-free survival will be reported subsequently at a second data cutoff. Overall survival will be formally tested at all points, including a third data cutoff.
# With a sample size of 796 patients, the first interim analysis was planned to occur when there had been approximately 379 progression or death events (47.6% maturity), to provide 94.1% power at a one-sided alpha of 0.014 to show a statistically significant difference in imaging-based progression-free survival between the trial arms, assuming a hazard ratio for progression or death of 0.68.
# A multiple testing procedure controlled the overall one-sided type 1 error rate of 2.5%.
# [1] = rPFS investigator assessment, FAS, All patients
# [2] = rPFS, subgroup Age at randomisation: <65 years
# [3] = rPFS, subgroup Age at randomisation: ≥65 years
# [4] = rPFS, subgroup Docetaxel treatment at mHSPC stage
# [5] = rPFS, subgroup HRRm Unknown, ctDNA test
# [6] = rPFS, subgroup HRRm Unknown, tumour tissue test
# [7] = rPFS, subgroup HRRm, ctDNA test (FoundationOne Liquid CDx)
# [8] = rPFS, subgroup HRRm, tumour tissue test (FoundationOne CDx)
# [9] = rPFS, subgroup No docetaxel treatment at mHSPC stage
# [10] = rPFS, subgroup Non-HRRm, ctDNA test
# [11] = rPFS, subgroup Non-HRRm, tumour tissue test
# [12] = rPFS, subgroup Site of distant metastases: Bone only
# [13] = rPFS, subgroup Site of distant metastases: Other
# [14] = rPFS, subgroup Site of distant metastases: Visceral
smiles,measurement,setting,value
"CC(=O)O[C@H]1CC[C@@]2(C)C(=CC[C@@H]3[C@@H]2CC[C@]2(C)C(c4cccnc4)=CC[C@@H]32)C1 [abiraterone acetate and placebo, (3β)-17-(3-pyridinyl) androsta-5,16-dien-3-yl acetate]",second progression or death events,"PFS2, number of events",94
same,patients who received a first subsequent therapy,"TFST, number of patients",221
same,Confirmed PSA response,"human, in vivo",69.2%
same,Median time to PSA progression,"human, in vivo",12.0 months
same,median imaging-based progression-free survival by investigator assessment,"intention-to-treat, first interim analysis, data cutoff Jul. 30, 2021",16.6 months
same,Median rPFS,"investigator assessment, FAS, All patients",16.59 months
same,"progression or death events, blinded independent central review",number of events,218
same,"progression or death events, investigator assessment",number of events,226
same,"ORR, number of patients with response",of 161 patients (olaparib arm) / of 160 patients (placebo arm) with measurable disease at baseline,77
same,deaths,"overall survival analysis, number of deaths",121
same,ORR,patients with measurable disease at baseline,48.1%
same,median imaging-based progression-free survival by blinded independent central review,prespecified sensitivity analysis,16.4 months
same,Number of events/total number of patients,[1],226/397
same,Number of events/total number of patients (%),[1],(56.9) %
same,Number of events/total number of patients,[2],59/97
same,Number of events/total number of patients (%),[2],(60.8) %
same,Number of events/total number of patients,[3],167/300
same,Number of events/total number of patients (%),[3],(55.7) %
same,Number of events/total number of patients,[4],56/94
same,Number of events/total number of patients (%),[4],(59.6) %
same,Number of events/total number of patients,[5],13/30
same,Number of events/total number of patients (%),[5],(43.3) %
same,Number of events/total number of patients,[6],76/131
same,Number of events/total number of patients (%),[6],(58.0) %
same,Number of events/total number of patients,[7],66/100
same,Number of events/total number of patients (%),[7],(66.0) %
same,Number of events/total number of patients,[8],37/56
same,Number of events/total number of patients (%),[8],(66.1) %
same,Number of events/total number of patients,[9],170/303
same,Number of events/total number of patients (%),[9],(56.1) %
same,Number of events/total number of patients,[10],147/267
same,Number of events/total number of patients (%),[10],(55.1) %
same,Number of events/total number of patients,[11],113/210
same,Number of events/total number of patients (%),[11],(53.8) %
same,Number of events/total number of patients,[12],102/217
same,Number of events/total number of patients (%),[12],(47.0) %
same,Number of events/total number of patients,[13],84/128
same,Number of events/total number of patients (%),[13],(65.6) %
same,Number of events/total number of patients,[14],40/52
same,Number of events/total number of patients (%),[14],(76.9) %
same,Median rPFS,subgroup Age at randomisation: <65 years,16.36 months
same,Median rPFS,subgroup Age at randomisation: ≥65 years,16.66 months
same,Median rPFS,subgroup Docetaxel treatment at mHSPC stage,13.83 months
same,Median rPFS,"subgroup HRRm Unknown, tumour tissue test",16.39 months
same,Median rPFS,"subgroup HRRm, ctDNA test (FoundationOne Liquid CDx)",13.63 months
same,Median rPFS,"subgroup HRRm, tumour tissue test (FoundationOne CDx)",16.62 months
same,Median rPFS,subgroup No docetaxel treatment at mHSPC stage,16.82 months
same,Median rPFS,"subgroup Non-HRRm, ctDNA test",18.96 months
same,Median rPFS,"subgroup Non-HRRm, tumour tissue test",16.59 months
same,Median rPFS,subgroup Site of distant metastases: Bone only,22.18 months
same,Median rPFS,subgroup Site of distant metastases: Other,13.70 months
same,Median rPFS,subgroup Site of distant metastases: Visceral,10.91 months
